Experimental data reported in patent US20070173462A1, “Treatment of diseases associated with the use of antibiotics” (Optimer Pharmaceuticals, Inc., priority 2004, published 2007).
≈ marks a conversion by molar mass, not a printed value.

Legend:
Veillonella sp. = experiment: microbe, parasite or virus in culture; type: cell-based; conditions: clinical gastrointestinal isolates, n=10
C. glycolicum = experiment: microbe, parasite or virus in culture; type: cell-based; conditions: clinical isolates, n=9
C. clostridioforme = experiment: organism not typed; type: cell-based; conditions: clinical isolates, n=5
Pseudomonas aeruginosa = experiment: microbe, parasite or virus in culture; type: cell-based; conditions: clinical gastrointestinal isolates, n=10
[1] = test system: Other anaerobic Gram negative rods; experiment: organism not typed; type: cell-based; conditions: clinical gastrointestinal isolates, n=51
[2] = test system: Streptococcus milleri group; experiment: microbe, parasite or virus in culture; type: cell-based; conditions: clinical gastrointestinal isolates, n=14
Klebsiella sp. = experiment: microbe, parasite or virus in culture; type: cell-based; conditions: clinical gastrointestinal isolates, n=10
[3] = test system: Non-spore forming Gram positive rods; experiment: organism not typed; type: cell-based; conditions: clinical gastrointestinal isolates, n=64
Other Clostridium sp. = experiment: microbe, parasite or virus in culture; type: cell-based; conditions: Clostridium; clinical isolates, n=11
Streptococcus sp. [4] = experiment: microbe, parasite or virus in culture; type: cell-based; conditions: clinical gastrointestinal isolates, n=9
Enterobacteriaceae. = experiment: MIC, ATCC laboratory strains (NCCLS guidelines); type: cell-based; conditions: n=10
Protocol: (§1) The activity of Compound I was tested against laboratory strains of different species of bacteria using NCCLS antimicrobial susceptibility testing guidelines. […] Including MRSA and Enterococcus sp. Including VRE (Table. 2).

Bacteroides sp. = experiment: MIC, ATCC laboratory strains (NCCLS guidelines); type: cell-based; conditions: n=5
Protocol: as §1

Micrococcus sp. = experiment: MIC, ATCC laboratory strains (NCCLS guidelines); type: cell-based
Protocol: as §1

Helicobacter sp. = experiment: MIC, ATCC laboratory strains (NCCLS guidelines); type: cell-based; conditions: n=1
Protocol: as §1

Neisseria sp. = experiment: MIC, ATCC laboratory strains (NCCLS guidelines); type: cell-based; conditions: n=3, in µg/mL
Protocol: as §1

Fusobacterium sp. = experiment: MIC, ATCC laboratory strains (NCCLS guidelines); type: cell-based; conditions: n=1
Protocol: as §1

Moraxella sp. = experiment: MIC, ATCC laboratory strains (NCCLS guidelines); type: cell-based; conditions: n=2, in µg/mL
Protocol: as §1

Bacillus sp. = experiment: MIC, ATCC laboratory strains (NCCLS guidelines); type: cell-based; conditions: n=2
Protocol: as §1

Streptococcus sp. [5] = experiment: MIC, ATCC laboratory strains (NCCLS guidelines); type: cell-based; conditions: n=5, in µg/mL
Protocol: as §1

Citrobacter sp. = experiment: MIC, ATCC laboratory strains (NCCLS guidelines); type: cell-based; conditions: n=2
Protocol: as §1

[6] = test system: Staphylococcus sp. (incl. MRSA); experiment: MIC, ATCC laboratory strains (NCCLS guidelines); type: cell-based
Protocol: as §1

[7] = test system: Anaerobic Gram positive cocci; experiment: MIC, ATCC laboratory strains (NCCLS guidelines); type: cell-based; conditions: n=4
Protocol: as §1

[8] = test system: Enterococcus sp. (incl. VRE); experiment: MIC, ATCC laboratory strains (NCCLS guidelines); type: cell-based
Protocol: as §1

Clostridium sp. = experiment: MIC, ATCC laboratory strains (NCCLS guidelines); type: cell-based
Protocol: as §1

C. paraputrificum = experiment: microbe, parasite or virus in culture; type: cell-based; conditions: clinical isolates, n=10
Proteus mirabilis = experiment: microbe, parasite or virus in culture; type: cell-based; conditions: clinical gastrointestinal isolates, n=10
toxigenic C. difficile = experiment: Hamster model of clindamycin-induced Clostridium difficile associated diarrhea/colitis; type: in vivo, Syrian hamsters
Protocol: Animals were treated with two oral doses of clindamycin at 100 mg/kg. Three days after the second dose of clindamycin, they were inoculated with toxigenic C. difficile spores. […] Animals were observed daily for the presence or absence of diarrhea. Necropsies were performed on some animals that died during the experiment, and cecal contents were assayed for C. difficile toxin A. Hamsters were monitored for 20 days, and the cumulative mortality during this period was recorded (FIG. 1).

C. bolteae = experiment: microbe, parasite or virus in culture; type: cell-based; conditions: Enterocloster bolteae; clinical isolates, n=6
Enterobacter sp. = experiment: microbe, parasite or virus in culture; type: cell-based; conditions: clinical gastrointestinal isolates, n=20
Eschericia coli = experiment: organism not typed; type: cell-based; conditions: clinical gastrointestinal isolates, n=10
[9] = test system: C. difficile, C. perfringens and C. sordellii; experiment: organism not typed; type: cell-based
Stephylococcus sp. = experiment: organism not typed; type: cell-based; conditions: clinical gastrointestinal isolates, n=19
C. sordellii = experiment: microbe, parasite or virus in culture; type: cell-based; conditions: clinical isolates, n=5

`CCc1c(Cl)c(O)c(Cl)c(O)c1C(=O)O[C@H]1[C@H](O)[C@H](OC)[C@H](OC/C2=C\C=C\C[C@H](O)/C(C)=C/[C@H](CC)C(O[C@@H]3OC(C)(C)[C@@H](OC(=O)C(C)C)[C@H](O)[C@@H]3O)/C(C)=C/C(C)=C/C[C@@H](C(C)O)OC2=O)O[C@@H]1C` (stereo partly drawn) [Compound I] was tested, and the MIC50 (Veillonella sp.; Veillonella) was 32 µg/mL (≈ 30.2 µM), the MIC90 (Veillonella sp.; Veillonella) was 128 µg/mL (≈ 121 µM) and the “Range (MIC)” value (Veillonella sp.) was 16 to 128 µg/mL. For the same compound, the MIC50 (C. glycolicum; Terrisporobacter glycolicus) was 0.062 µg/mL (≈ 0.0586 µM), the MIC90 (C. glycolicum; Terrisporobacter glycolicus) was 1 µg/mL (≈ 0.945 µM) and the “Range (MIC)” value (C. glycolicum) was 0.062 to 1 µg/mL. The MIC50 (C. clostridioforme) was 4 µg/mL (≈ 3.78 µM), the MIC90 (C. clostridioforme) was > 1020 µg/mL and the MIC50 (Pseudomonas aeruginosa) was > 256 µg/mL. For the same compound, the MIC90 (Pseudomonas aeruginosa) was > 256 µg/mL, the MIC50 [1] was 1020 µg/mL (≈ 968 µM) and the MIC90 [1] was > 1020 µg/mL. For the same compound, the MIC50 ([2]; Streptococcus milleri) was 32 µg/mL (≈ 30.2 µM), the MIC90 ([2]; Streptococcus milleri) was 32 µg/mL (≈ 30.2 µM) and the “Range (MIC)” value [2] was 16 to 64 µg/mL. The MIC50 (Klebsiella sp.; Klebsiella) was > 256 µg/mL, the MIC90 (Klebsiella sp.; Klebsiella) was > 256 µg/mL and the “Range (MIC)” value (Klebsiella sp.) was >256 µg/mL. It also gave an MIC50 [3] of 1 µg/mL (≈ 0.945 µM), an MIC90 [3] of 32 µg/mL (≈ 30.2 µM) and an MIC50 (Other Clostridium sp.) of 32 µg/mL (≈ 30.2 µM). For the same compound, the MIC90 (Other Clostridium sp.) was 1020 µg/mL (≈ 968 µM), the MIC50 (Streptococcus sp. [4]; Streptococcus) was 32 µg/mL (≈ 30.2 µM) and the MIC90 (Streptococcus sp. [4]; Streptococcus) was 128 µg/mL (≈ 121 µM). The “Range (MIC)” value (Streptococcus sp. [4]) was 16 to 128 µg/mL, the Range (MIC) (Enterobacteriaceae.) was > 32 µg/mL and the Range (MIC) (Bacteroides sp.) was > 32 µg/mL. The “Range (MIC)” value (Micrococcus sp.; ATCC laboratory strains, n=4) was “≦0.125”, the “activity (in words)” value (Micrococcus sp.; laboratory strains) was “excellent activity” and the Range (MIC) (Helicobacter sp.) was > 32 µg/mL. For the same compound, the “Range (MIC)” value (Neisseria sp.) was 8-64, the Range (MIC) (Fusobacterium sp.) was > 32 µg/mL and the “Range (MIC)” value (Moraxella sp.) was 1-2. For the same compound, the Range (MIC) (Bacillus sp.) was 1 µg/mL, the “Range (MIC)” value (Streptococcus sp. [5]) was 16-32 and the Range (MIC) (Citrobacter sp.) was > 64 µg/mL. The “Range (MIC)” value ([6]; ATCC laboratory strains, n=6, in µg/mL) was 1-16, the “activity (in words)” value ([6]; laboratory strains, including MRSA) was “moderate activity” and the “Range (MIC)” value [7] was “≦0.06-1”. The Range (MIC) ([8]; ATCC laboratory strains, n=4) was 4 µg/mL, the “activity (in words)” value ([8]; laboratory strains, including VRE) was “moderate activity” and the “Range (MIC)” value (Clostridium sp.; ATCC laboratory strains, n=4) was “≦0.015-0.0625”. The “activity (in words)” value (Clostridium sp.; laboratory strains) was “excellent activity”, the MIC50 (C. paraputrificum; Clostridium paraputrificum) was 8 µg/mL (≈ 7.56 µM) and the MIC90 (C. paraputrificum; Clostridium paraputrificum) was 32 µg/mL (≈ 30.2 µM). For the same compound, the “Range (MIC)” value (C. paraputrificum) was 0.062-64 ^ μg/mL, the MIC50 (Proteus mirabilis; Proteus mirabilis) was > 256 µg/mL and the MIC90 (Proteus mirabilis; Proteus mirabilis) was > 256 µg/mL. For the same compound, the “Range (MIC)” value (Proteus mirabilis) was >256 µg/mL, the ED50 (toxigenic C. difficile; Clostridioides difficile, oral, 7 days, started 8 hours after infection, hamsters monitored 20 days) was < 0.3 mg/kg and the “protection from infection (cumulative mortality over 20 days)” value (toxigenic C. difficile; oral treatment for 7 days, untreated infection uniformly fatal between days two and six) was “protected the animals from infection”. The MIC50 (C. bolteae) was > 1020 µg/mL, the MIC90 (C. bolteae) was > 1020 µg/mL and the MIC50 (Enterobacter sp.; Enterobacter) was > 256 µg/mL. The MIC90 (Enterobacter sp.; Enterobacter) was > 256 µg/mL, the “Range (MIC)” value (Enterobacter sp.) was >256 µg/mL and the MIC50 (Eschericia coli) was > 256 µg/mL. The MIC90 (Eschericia coli) was > 256 µg/mL, the “Range (MIC)” value (Eschericia coli) was >256 µg/mL and the MIC90 [9] was 0.062 to 0.25 µg/mL (≈ 0.0586 to 0.236 µM). The MIC50 (Stephylococcus sp.) was 0.5 µg/mL (≈ 0.473 µM), the MIC90 (Stephylococcus sp.) was 1 µg/mL (≈ 0.945 µM) and the “Range (MIC)” value (Stephylococcus sp.) was 0.25-2 ^ μg/mL. The MIC50 (C. sordellii; Paraclostridium sordellii) was 0.062 µg/mL (≈ 0.0586 µM), the MIC90 (C. sordellii; Paraclostridium sordellii) was 0.062 µg/mL (≈ 0.0586 µM) and the “Range (MIC)” value (C. sordellii) was 0.062 µg/mL.
